Data taken from patent publication US12275731B2, “Azaindole inhibitors of wild-type and mutant forms of LRRK2” (DANA-FARBER CANCER INSTITUTE, INC., priority 2018, dated 2025).

Columns and labels:
Assay in all cases: KinomeScan profiling
Type in all cases: binding
[1] = biological target: T1, MAP4K3 (Homo sapiens, UniProt Q8IVH8); settings: MAP4K3, 1 μM; read-out: % control
T1 sequence (Q8IVH8 1-894): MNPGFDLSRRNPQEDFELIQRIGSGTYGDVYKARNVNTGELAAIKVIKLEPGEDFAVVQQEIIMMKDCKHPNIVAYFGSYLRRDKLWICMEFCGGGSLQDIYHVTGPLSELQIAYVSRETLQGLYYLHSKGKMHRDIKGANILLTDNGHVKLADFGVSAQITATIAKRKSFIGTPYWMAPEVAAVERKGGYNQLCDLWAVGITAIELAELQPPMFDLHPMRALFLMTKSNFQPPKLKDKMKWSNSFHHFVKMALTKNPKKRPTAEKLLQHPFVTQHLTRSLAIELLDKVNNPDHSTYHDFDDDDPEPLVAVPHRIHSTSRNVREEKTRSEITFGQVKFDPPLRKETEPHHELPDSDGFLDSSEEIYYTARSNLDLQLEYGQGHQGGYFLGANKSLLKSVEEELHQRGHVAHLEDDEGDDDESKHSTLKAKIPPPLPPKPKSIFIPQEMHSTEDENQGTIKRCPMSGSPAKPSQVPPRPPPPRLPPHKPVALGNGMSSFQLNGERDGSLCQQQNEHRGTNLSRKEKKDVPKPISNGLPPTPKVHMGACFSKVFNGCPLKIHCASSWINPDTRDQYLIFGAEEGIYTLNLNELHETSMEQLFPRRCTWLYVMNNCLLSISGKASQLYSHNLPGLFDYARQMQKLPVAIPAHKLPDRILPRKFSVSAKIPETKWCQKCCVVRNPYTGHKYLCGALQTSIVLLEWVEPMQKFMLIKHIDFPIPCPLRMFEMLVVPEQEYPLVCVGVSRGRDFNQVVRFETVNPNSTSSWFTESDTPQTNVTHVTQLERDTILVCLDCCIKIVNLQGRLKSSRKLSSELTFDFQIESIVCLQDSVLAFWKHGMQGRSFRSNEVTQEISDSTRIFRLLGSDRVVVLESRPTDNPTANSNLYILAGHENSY
Outline: (§1)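 Test agents were profiled at a single concentration of 1 μM (DMSO vehicle) on a near-complete set of 468 kinases. Signal is reported relative to vehicle (100%) and a fully displacing control (0%).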

[2] = biological target: T2, ABL1(Q252H)-nonphosphorylated (Homo sapiens, UniProt P00519, Q252H); settings: read-out: % control
T2 construct: purchased KinomeScan®
Outline: as §1

[3] = biological target: CHEK2 (Homo sapiens, UniProt O96017); settings: CHEK2, 1 μM; read-out: % control
Outline: as §1

[4] = biological target: RIOK2 (Homo sapiens, UniProt Q9BVS4); settings: RIOK2, 1 μM; read-out: % control
Outline: as §1

[5] = biological target: EGFR(E746-A750del) (Homo sapiens, UniProt P00533, DEL746-750); settings: read-out: % control
Outline: as §1

[6] = biological target: T3, AKT3 (Homo sapiens, UniProt Q9Y243); settings: AKT3, 1 μM; read-out: % control
T3 construct: purchased KinomeScan®
Outline: as §1

[7] = biological target: PCTK2 (Homo sapiens, UniProt Q00537); settings: PCTK2, 1 μM; read-out: % control
Outline: as §1

[8] = biological target: T4, LKB1 (Homo sapiens, UniProt Q15831); settings: LKB1, 1 μM; read-out: % control
T4 sequence (Q15831 1-433): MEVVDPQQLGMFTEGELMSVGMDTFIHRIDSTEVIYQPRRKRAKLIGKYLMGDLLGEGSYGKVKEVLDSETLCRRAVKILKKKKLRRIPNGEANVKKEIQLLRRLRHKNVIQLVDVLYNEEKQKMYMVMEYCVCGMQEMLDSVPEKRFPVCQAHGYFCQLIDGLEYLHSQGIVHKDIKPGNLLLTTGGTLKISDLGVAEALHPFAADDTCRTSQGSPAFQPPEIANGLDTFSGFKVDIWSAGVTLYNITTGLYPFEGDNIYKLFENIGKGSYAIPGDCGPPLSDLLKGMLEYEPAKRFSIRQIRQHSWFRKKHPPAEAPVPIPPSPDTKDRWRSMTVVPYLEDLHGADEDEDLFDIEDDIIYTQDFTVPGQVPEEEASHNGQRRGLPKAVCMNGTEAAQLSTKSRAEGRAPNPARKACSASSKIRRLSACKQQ
Outline: as §1

[9] = biological target: T5, KIT(V559D, T670I) (Homo sapiens, UniProt P10721, T670I/V559D); settings: read-out: % control
T5 construct: purchased KinomeScan®
Outline: as §1

[10] = biological target: T6, MKK7 (Homo sapiens, UniProt O14733); settings: MKK7, 1 μM; read-out: % control
T6 sequence (O14733 1-419): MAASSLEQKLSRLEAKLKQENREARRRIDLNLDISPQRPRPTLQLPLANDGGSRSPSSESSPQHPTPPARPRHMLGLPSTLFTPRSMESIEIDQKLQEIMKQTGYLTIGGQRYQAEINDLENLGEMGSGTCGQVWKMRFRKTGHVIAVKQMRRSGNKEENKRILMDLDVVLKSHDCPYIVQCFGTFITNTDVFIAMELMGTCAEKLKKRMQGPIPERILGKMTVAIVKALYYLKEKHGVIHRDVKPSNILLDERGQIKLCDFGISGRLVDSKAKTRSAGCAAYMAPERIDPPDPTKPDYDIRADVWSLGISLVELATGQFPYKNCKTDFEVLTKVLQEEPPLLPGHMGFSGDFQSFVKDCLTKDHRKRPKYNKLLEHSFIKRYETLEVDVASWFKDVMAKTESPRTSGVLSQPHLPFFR
Outline: as §1

[11] = biological target: CDK4-cyclinD1 (Homo sapiens, UniProt P11802); settings: CDK4-cyclinD1, 1 μM; read-out: % control
Outline: as §1

[12] = biological target: T7, BMPR1A (Homo sapiens, UniProt P36894); settings: read-out: % control
T7 construct: purchased KinomeScan®
Outline: as §1

Chain of CDK4-cyclinD1 (P11802 whole entry): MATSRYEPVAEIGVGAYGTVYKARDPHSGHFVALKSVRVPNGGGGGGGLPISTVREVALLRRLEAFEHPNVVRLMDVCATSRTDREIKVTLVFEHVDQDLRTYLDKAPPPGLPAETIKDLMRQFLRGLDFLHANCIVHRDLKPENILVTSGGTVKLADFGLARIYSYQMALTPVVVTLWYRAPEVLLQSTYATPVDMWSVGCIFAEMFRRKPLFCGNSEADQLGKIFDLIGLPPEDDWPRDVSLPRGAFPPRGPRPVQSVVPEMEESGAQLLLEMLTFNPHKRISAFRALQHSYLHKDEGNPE
Chain of CDK4-cyclinD1 (P24385 whole entry partner): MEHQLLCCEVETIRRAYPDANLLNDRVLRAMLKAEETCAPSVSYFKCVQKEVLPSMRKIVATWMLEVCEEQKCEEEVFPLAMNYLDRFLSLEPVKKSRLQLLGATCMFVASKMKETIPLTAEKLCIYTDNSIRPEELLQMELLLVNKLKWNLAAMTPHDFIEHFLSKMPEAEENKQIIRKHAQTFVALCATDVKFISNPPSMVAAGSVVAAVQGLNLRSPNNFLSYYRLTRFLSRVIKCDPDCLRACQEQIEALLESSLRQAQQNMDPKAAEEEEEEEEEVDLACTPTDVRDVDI
T3 sequence (Q9Y243 whole entry): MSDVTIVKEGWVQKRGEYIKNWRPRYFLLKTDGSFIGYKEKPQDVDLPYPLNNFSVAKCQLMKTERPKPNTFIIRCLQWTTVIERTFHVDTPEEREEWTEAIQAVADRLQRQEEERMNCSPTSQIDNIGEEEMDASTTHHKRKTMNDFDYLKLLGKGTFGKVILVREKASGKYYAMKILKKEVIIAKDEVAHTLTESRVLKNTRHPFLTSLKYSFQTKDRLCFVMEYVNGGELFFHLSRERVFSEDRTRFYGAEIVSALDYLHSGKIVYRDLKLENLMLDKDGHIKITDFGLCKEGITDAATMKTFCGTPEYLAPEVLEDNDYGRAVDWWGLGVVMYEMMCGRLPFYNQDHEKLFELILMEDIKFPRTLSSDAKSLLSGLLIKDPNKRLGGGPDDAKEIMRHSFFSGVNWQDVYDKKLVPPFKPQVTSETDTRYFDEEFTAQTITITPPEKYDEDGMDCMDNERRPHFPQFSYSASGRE
Chain of EGFR(E746-A750del) (P00533 with tags, fused parts or gaps DEL746-750): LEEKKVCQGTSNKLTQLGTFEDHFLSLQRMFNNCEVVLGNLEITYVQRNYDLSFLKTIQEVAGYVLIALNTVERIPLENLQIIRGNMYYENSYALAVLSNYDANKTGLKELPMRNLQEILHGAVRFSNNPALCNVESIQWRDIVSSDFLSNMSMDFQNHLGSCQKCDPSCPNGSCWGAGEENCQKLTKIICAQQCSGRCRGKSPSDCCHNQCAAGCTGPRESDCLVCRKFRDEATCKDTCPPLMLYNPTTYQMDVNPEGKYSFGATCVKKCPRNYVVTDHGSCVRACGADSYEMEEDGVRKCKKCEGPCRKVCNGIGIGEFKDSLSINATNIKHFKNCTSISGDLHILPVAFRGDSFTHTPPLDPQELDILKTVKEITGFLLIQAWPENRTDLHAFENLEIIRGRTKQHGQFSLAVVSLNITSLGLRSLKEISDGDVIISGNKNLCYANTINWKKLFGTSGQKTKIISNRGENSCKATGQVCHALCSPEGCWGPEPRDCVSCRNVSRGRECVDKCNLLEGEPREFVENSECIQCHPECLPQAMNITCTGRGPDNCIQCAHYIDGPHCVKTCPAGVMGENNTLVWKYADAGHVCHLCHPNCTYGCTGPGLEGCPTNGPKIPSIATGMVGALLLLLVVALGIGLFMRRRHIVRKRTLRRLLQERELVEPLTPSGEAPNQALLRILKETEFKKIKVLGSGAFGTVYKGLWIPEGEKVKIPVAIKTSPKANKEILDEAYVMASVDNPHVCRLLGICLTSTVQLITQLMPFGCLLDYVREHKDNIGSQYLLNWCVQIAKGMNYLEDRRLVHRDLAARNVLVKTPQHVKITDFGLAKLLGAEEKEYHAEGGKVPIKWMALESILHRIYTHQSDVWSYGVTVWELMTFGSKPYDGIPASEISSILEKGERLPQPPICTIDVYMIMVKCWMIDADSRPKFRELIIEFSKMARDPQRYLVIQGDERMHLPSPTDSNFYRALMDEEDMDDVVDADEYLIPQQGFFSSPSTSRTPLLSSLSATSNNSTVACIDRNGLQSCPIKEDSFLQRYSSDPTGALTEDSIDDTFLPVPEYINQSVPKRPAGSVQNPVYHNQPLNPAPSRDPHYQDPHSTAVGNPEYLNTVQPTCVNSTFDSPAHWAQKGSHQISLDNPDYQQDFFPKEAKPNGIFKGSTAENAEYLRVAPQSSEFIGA
T7 sequence (P36894 24-532): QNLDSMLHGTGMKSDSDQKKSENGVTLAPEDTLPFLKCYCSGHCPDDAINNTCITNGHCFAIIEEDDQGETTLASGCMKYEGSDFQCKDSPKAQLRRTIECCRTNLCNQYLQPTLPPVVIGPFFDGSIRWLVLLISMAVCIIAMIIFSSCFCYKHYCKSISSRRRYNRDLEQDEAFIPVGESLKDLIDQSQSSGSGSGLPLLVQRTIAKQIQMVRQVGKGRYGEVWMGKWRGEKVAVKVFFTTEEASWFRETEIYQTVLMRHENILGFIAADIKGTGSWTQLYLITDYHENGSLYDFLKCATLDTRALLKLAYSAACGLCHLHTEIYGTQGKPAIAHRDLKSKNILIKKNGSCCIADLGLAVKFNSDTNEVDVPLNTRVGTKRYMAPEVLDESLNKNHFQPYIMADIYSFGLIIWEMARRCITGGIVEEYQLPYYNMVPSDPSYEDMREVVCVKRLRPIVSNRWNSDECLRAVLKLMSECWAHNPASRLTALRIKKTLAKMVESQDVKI
T5 sequence (P10721 26-976 V559D/T670I): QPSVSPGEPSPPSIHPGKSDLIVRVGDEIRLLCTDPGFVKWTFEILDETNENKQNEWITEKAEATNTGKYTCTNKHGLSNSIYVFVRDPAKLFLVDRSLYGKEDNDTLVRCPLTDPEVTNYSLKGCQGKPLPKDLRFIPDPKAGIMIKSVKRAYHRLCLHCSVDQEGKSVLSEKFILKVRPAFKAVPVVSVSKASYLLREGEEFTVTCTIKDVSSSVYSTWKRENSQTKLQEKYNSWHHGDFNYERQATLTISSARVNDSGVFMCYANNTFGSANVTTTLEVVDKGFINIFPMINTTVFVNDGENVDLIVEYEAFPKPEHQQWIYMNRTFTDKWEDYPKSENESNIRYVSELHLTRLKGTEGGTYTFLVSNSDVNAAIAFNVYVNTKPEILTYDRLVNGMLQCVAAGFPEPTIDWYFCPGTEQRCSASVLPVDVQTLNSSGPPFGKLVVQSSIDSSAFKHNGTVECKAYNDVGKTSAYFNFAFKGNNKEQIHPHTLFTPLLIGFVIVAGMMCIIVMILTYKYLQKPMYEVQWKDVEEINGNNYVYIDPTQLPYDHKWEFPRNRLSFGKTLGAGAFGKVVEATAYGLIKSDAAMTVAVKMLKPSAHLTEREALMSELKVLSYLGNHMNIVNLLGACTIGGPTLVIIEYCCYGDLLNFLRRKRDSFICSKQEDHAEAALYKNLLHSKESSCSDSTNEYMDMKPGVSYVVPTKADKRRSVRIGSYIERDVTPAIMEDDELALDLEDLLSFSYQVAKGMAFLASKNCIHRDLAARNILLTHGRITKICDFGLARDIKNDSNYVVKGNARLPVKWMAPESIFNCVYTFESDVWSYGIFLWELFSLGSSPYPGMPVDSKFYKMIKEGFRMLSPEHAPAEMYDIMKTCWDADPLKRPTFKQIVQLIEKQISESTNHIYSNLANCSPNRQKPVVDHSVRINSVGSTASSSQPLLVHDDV
Chain of CHEK2 (O96017 whole entry): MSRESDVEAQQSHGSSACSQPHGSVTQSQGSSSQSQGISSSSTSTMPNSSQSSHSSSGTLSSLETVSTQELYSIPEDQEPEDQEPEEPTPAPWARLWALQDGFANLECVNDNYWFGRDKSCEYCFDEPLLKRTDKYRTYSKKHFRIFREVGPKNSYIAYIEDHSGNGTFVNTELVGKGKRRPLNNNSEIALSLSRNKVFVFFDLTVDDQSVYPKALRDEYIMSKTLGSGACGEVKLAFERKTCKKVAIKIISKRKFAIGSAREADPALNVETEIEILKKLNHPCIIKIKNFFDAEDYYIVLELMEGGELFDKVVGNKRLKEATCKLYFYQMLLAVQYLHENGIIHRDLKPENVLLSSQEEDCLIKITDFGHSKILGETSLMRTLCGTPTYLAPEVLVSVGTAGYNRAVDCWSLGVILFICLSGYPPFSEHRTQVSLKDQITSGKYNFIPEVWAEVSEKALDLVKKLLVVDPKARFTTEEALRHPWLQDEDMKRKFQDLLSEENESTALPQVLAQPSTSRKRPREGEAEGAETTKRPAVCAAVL
Chain of RIOK2 (Q9BVS4 whole entry): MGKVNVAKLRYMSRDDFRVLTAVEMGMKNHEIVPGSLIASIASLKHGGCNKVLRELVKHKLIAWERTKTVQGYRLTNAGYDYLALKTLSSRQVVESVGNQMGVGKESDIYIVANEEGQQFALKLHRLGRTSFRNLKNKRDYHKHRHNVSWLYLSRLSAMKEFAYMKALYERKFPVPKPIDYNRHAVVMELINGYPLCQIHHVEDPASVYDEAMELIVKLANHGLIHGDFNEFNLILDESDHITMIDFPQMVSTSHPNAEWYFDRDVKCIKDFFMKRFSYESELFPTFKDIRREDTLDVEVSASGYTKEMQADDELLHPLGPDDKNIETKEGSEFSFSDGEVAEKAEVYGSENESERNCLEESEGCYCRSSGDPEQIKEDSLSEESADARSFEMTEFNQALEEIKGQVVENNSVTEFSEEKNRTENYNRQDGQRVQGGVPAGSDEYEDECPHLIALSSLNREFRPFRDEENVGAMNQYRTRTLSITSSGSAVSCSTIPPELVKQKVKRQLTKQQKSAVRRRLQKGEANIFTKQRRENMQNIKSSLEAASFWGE

Structure (SMILES) | remaining binding at 1 µM [1] [%] | remaining binding at 1 µM [2] [%] | remaining binding at 1 µM [3] [%] | remaining binding at 1 µM [4] [%] | remaining binding at 1 µM [5] [%] | remaining binding at 1 µM [6] [%] | remaining binding at 1 µM [7] [%] | remaining binding at 1 µM [8] [%] | remaining binding at 1 µM [9] [%] | remaining binding at 1 µM [10] [%] | remaining binding at 1 µM [11] [%] | remaining binding at 1 µM [12] [%]
O=C(c1ccc(-c2cnc3[nH]cc(Cl)c3c2NC2CCCC2)cc1)N1CCC(N2CCOCC2)CC1 [Compound 101, (4-(3-chloro-4-(cyclopentylamino)-1H-pyrrolo[2,3-b]pyridin-5-yl)phenyl)(4-morpholinopiperidin-1-yl)methanone] | 74 | 92 | 92 | 28 | 97 | 99 | 96 | 78 | 71 | 100 | 100 | 87
CNc1c(-c2cnn([C@H]3CCN(C(C)=O)C[C@@H]3F)c2)cnc2[nH]cc(Cl)c12 [Compound 77, 1-((3S,4S)-4-(4-(3-chloro-4-(methylamino)-1H-pyrrolo[2,3-b]pyridin-5-yl)-1H-pyrazol-1-yl)-3-fluoropiperidin-1-yl)ethan-1-one] | 94 | 50 | 56 | 73 | 100 | 95 | 100 | 88 | 9.7 | 67 | 74 | 93
CNc1c(-c2ccc(C(=O)N3CCC(N4CCOCC4)CC3)cc2)cnc2[nH]cc(Cl)c12 [Compound 96, (4-(3-chloro-4-(methylamino)-1H-pyrrolo[2,3-b]pyridin-5-yl)phenyl)(4-morpholinopiperidin-1-yl)methanone] | 83 | 64 | 22 | 26 | 93 | 100 | 97 | 91 | 27 | 79 | 73 | 66
